4 compounds from US4439603A, “Anthracycline derivatives of β-rhodomycinone glycosides” (Sanraku-Ocean Co., Ltd., priority 1981, dated 1984) can be followed below.

In one data set the test system is L1210 leukemia cells. In words: Growth inhibition of cultured mouse leukemia L1210 cells (48 hours, viable cell count). Format: cell-based. The note with it: for IC50: Mus musculus, L1210, 48 h, read-out: 50% Inhibitory concentration, Growth inhibition after 48 hours; for antitumor effect on L1210 leukemia cells: result in words. As for the experimental part:
The L1210 cells were cultivated at 37° C. overnight and transferred to RPMI (Roswell Park Memorial Institute) 1640 medium containing 20% calf serum at their exponential growth phase so as to give a cell concentration of 4×10^4 cells/ml. The compounds of the present invention were added to the medium at a concentration of 0.01-0.25 μg/ml. Incubation was performed in a CO2 -incubator at 37° C. for 2 days and then the number of viable cells was counted.
(§1) Independently of the above-mentioned experiment, the compounds of the present invention were added to an about 5×10^5 cells/ml L1210 cell suspension in RPMI 1640 medium containing 10% calf serum at a concentration of 0.02-2.5 μg/ml. After 15 minutes, ^14 -C-uridine (0.05 μCi/ml) or ^14 C-thymidine (0.05 μCi/ml) was added to the suspension and pulse-labeling was carried out at 37° C. for 60 minutes. The reaction was stopped by addition of a cold 10% trichloroacetic acid solution and an acid-insoluble fraction was precipitated. The precipitate was washed with a cold 5% trichloroacetic acid and the radioactivity was measured.

Data set [1] relates to L1210 cells, DNA synthesis. In words: Inhibition of DNA synthesis (14C-thymidine incorporation) in L1210 cells. To be noted: RPMI 1640 with 10% calf serum, pulse-labeling 60 minutes at 37° C.; for IC50: Mus musculus, L1210, 1 h, read-out: 50% Inhibitory concentration, 14C-Thymidine (Inhibition of DNA synthesis). Type of data set: cell-based, mouse. Here is the method:
as §1
In general terms: Incorporation of labelled thymidine or its analogues reports DNA synthesis.

Data set [2] has as its system L1210 cells, RNA synthesis. Kind of data set: Inhibition of RNA synthesis (14C-uridine incorporation) in L1210 cells. Format: cell-based, mouse. To be noted: RPMI 1640 with 10% calf serum, pulse-labeling 60 minutes at 37° C.; for IC50: Mus musculus, L1210, 1 h, read-out: 50% Inhibitory concentration, 14C-Uridine (Inhibition of RNA synthesis). As for the experimental part:
as §1

Data set [3] can be described thus: Acute toxicity in mice upon a single intraabdominal injection. Format: in vivo. To be noted: mouse, in vivo, ip.
The nature of a further data set: Solubility. Type of data set: physicochemical. Here is the method: Solubilities of the compounds of the present invention, β-rhodomycinone-RDA, -RDRs, and -RD are similar. […] The color of the solutions, when they are dissolved, is red or reddish yellow, which is changed to violet in alkaline solution.
The subject of another data set is mice. In words: Acute toxicity in mice upon a single intraabdominal injection. Format: in vivo.
The mark [4] stands for this setting: L1210 cells, RPMI 1640 with 20% calf serum, 37° C., 48 hours.
Setting [5] is: in acidic water, methanol, ethanol, n-butanol, acetone, ethyl acetate, chloroform, benzene, toluene, dimethylsulfoxide and methyl cellosolve.

Molecules are shown by their SMILES. Values after ≈ are worked out from the molar mass of the structure shown.

Regarding `CCC1(O)CC(OC2CC(N(C)C)C(OC3CC(O)C(OC4CCC(O)C(C)O4)C(C)O3)C(C)O2)c2c(O)c3c(c(O)c2C1O)C(=O)c1cccc(O)c1C3=O` (stereo not drawn) [β-Rhodomycinone-RDA], the IC50 in the data set with L1210 leukemia cells (setting [4]) was determined as 0.028 µg/mL (≈ 0.0355 µM); in data set [1], 0.52 µg/mL (≈ 0.66 µM); in data set [2] it was 0.095 µg/mL (≈ 0.121 µM). The “antitumor effect on L1210 leukemia cells” value in the data set with L1210 leukemia cells is reported as “have an antitumor effect on L1210 leukemia cells”. The compound also had an LD50 in data set [3] of 40.6 mg/kg. The Solubility entry in “Solubility” (setting [5]) is listed as “soluble”; in “Solubility” (in water, ether and n-hexane) it was “slightly soluble”.
For `CCC1(O)CC(OC2CC(N(C)C)C(OC3CC(O)C(OC4CCC(=O)C(C)O4)C(C)O3)C(C)O2)c2c(O)c3c(c(O)c2C1O)C(=O)c1cccc(O)c1C3=O` (stereo not drawn) [β-Rhodomycinone-RDC, reference compound], the IC50 with L1210 leukemia cells (setting [4]) was 0.01 µg/mL (≈ 0.0127 µM); in data set [1], 0.45 µg/mL (≈ 0.573 µM); in data set [2], 0.07 µg/mL (≈ 0.0891 µM).
In the case of `CCC1(O)CC(OC2CC(N(C)C)C(OC3CC(O)C(OC4CCC(O)C(C)O4)C(C)O3)C(C)O2)c2c(O)c3c(c(O)c2C1O)C(=O)c1cccc(O)c1C3=O` (stereo not drawn) [β-Rhodomycinone-RDRs], in the data set with L1210 leukemia cells (setting [4]), the “50% Inhibitory concentration, Growth inhibition after 48 hours” value amounted to 0.016 µg/mL. In addition, the “antitumor effect on L1210 leukemia cells” value with L1210 leukemia cells is on record as “have an antitumor effect on L1210 leukemia cells”. Moreover, in data set [1], the “50% Inhibitory concentration, 14C-Thymidine (Inhibition of DNA synthesis)” value stood at 0.54 µg/mL. Further, the “50% Inhibitory concentration, 14C-Uridine (Inhibition of RNA synthesis)” value in data set [2] was 0.085 µg/mL. Also, in the data set on mice, the “acute toxicity (LD50 value)” value was 35.3 mg/kg. Moreover, the Solubility result was “soluble” in “Solubility” (setting [5]); “slightly soluble” in the data set “Solubility” (in water, ether and n-hexane).
As for `CCC1(O)CC(OC2CC(N(C)C)C(OC3CC(O)C(O)C(C)O3)C(C)O2)c2c(O)c3c(c(O)c2C1O)C(=O)c1cccc(O)c1C3=O` (stereo not drawn) [β-Rhodomycinone-RD], the IC50 turned out to be 0.01 µg/mL (≈ 0.0148 µM) in the data set on L1210 leukemia cells (setting [4]), 0.36 µg/mL (≈ 0.534 µM) in data set [1] and 0.13 µg/mL (≈ 0.193 µM) in data set [2]. In the data set on L1210 leukemia cells, the “antitumor effect on L1210 leukemia cells” value is reported as “have an antitumor effect on L1210 leukemia cells”. The LD50 in data set [3] was found to be 25.5 mg/kg. The Solubility entry is given as “soluble” in the data set “Solubility” (setting [5]); “slightly soluble” in the data set “Solubility” (in water, ether and n-hexane).

Broadly, the LD50 is the dose at which mortality reaches 50%. Read a high LD50 as lower toxicity.
